The text below walks through data of patent US9572787B2, “Inhibition of renal fibrosis” (Rhode Island Hospital, priority 2011, dated 2017).

One data set has as its system obstructed kidney (UUO). The experiment in a line: UUO model, delayed administration of suramin at day 3 of obstruction. The class given is in vivo, mouse. The protocol: Animals and the UUO Model. The UUO model used was described above. The abdominal cavity was exposed via a midline incision and the left ureter was isolated and ligated. Sham-operated animal received the same surgical procedures but without ureter ligation. To establish the time course of renal fibrogenesis in this model, four groups of mice (n=5) were killed at days 1, 3, 7, and 14, respectively, after left ureter ligation. […] Control mice were injected with the equal volume of vehicle (0.9% saline). At the end of the experiments, mice were killed and the kidneys were removed. One part of the kidneys was fixed in 10% phosphate-buffered formalin for histological studies. Another part was snap-frozen in liquid nitrogen and stored at −80° C. for protein extractions.

The subject of data set [1] is NRK-49F cells. The experiment in a line: Delayed suramin treatment of TGF-β1-pretreated renal interstitial fibroblasts. The class given is cell-based, rat. The conditions noted are these: TGF-β1 pretreatment 24 and 48 h, then suramin 100 μM for additional 24 and 48 h with TGF-β1. The protocol: At 48 h after pretreatment with TGF-β1, expression of α-SMA and fibronectin was induced, which is similar to the in-vivo situation.

For data set [2], the system named is NRK-49F cells. The experiment in a line: Cleaved PARP and cleaved caspase-3 (apoptosis hallmarks), immunoblot. As to conditions: 100 μM suramin, 36 h. It counts as cell-based, rat. The protocol:
Cell Culture and Treatments. NRK-49F cells were cultured in Dulbecco's modified eagle's medium (DMEM) (Sigma-Aldrich, St. Louis, Mo.) containing 5% fetal bovine serum (FBS), 0.5% penicillin and streptomycin in an atmosphere of 5% CO2 and 95% air at 37° C. […] Immunoblot Analysis. Immunoblot analysis of NRK-49F cells and tissue samples were conducted as described previously. The densitometry analysis of immunoblot results was conducted by using NIH Image software (National Institutes of Health, Bethesda, Md.).
(In general: In western blotting, separated proteins are transferred to a membrane and probed.)

The conditions of data set [3]: in the body, cited from earlier work.
Where [4] appears, read: 20 mg/kg at day 3, kidney at day 10.

Like-named read-outs stand apart in the source and are kept apart here.

Regarding `Cc1ccc(C(=O)Nc2ccc(S(=O)(=O)O)c3cc(S(=O)(=O)O)cc(S(=O)(=O)O)c23)cc1NC(=O)c1cccc(NC(=O)Nc2cccc(C(=O)Nc3cc(C(=O)Nc4ccc(S(=O)(=O)O)c5cc(S(=O)(=O)O)cc(S(=O)(=O)O)c45)ccc3C)c2)c1` [Suramin], in the data set with obstructed kidney (UUO) (setting [4]), the EGFR phosphorylation entry was “significant reduction”, the PDGFR phosphorylation result is given as “significant reduction”, the Smad3 phosphorylation entry is “largely blocked” and the “expression of total EGFR” value is “not affected”. In the data set on obstructed kidney (UUO) (setting [4]), the “expression of total PDGFR” value is recorded as “not affected”, the “phosphorylation of ERK1/2” value was “not further increased”, the “phosphorylation of STAT3” value is “not further increased” and the “total protein level of ERK1/2” value is “did not alter”. For the same compound, in the data set on obstructed kidney (UUO) (setting [4]), the “total protein level of STAT3” value is “did not alter”. In addition, in the data set on obstructed kidney (UUO) (20 mg/kg at day 3, both 7- and 14-day treatment groups), the α-SMA expression result is on record as “reduced”. In addition, the Masson trichrome-positive areas entry in the data set with obstructed kidney (UUO) (20 mg/kg i.p. single dose at day 3, kidney at day 10) was “reduced on day 10 to a level similar to that in the kidney at 3 days of obstruction”. Further, in the data set with NRK-49F cells [1], the TGF-β1-induced fibronectin expression entry is recorded as “suppressed further increase” and the “TGF-β1-induced α-SMA expression” value was “suppressed further increase”. Also, in the data set on NRK-49F cells [2], the “cleavage of caspase-3” value was “did not induce cleavage” and the “cleavage of poly (ADP-ribose) polymerase (PARP)” value was “did not induce cleavage”. Moreover, in data set [3], the half life is on record as 21 days. In data set [3] (listed as suramin), the half life entry is listed as “at least 21 days”.
